In brackets after ≈: the same amount, converted by molar mass.
Experiments:
[1] = system: methicillin-resistant Staphylococcus aureus (MRSA); assay: MIC and MBC, broth microdilution, MRSA (Table 1); assay type: cell-based; details: for MBC / MIC: Staphylococcus aureus; for MIC: first value of cell
Description: (§1) To investigate the antimicrobial impact of structural variance in the novel bioresorbable CSA compounds disclosed herein,Pseudomonas aeruginosa 01 (PA01), methicillin-resistant Staphylococcus aureus (MRSA), and Candida albicans (CA) were selected, representing Gram-negative bacterial, Gram-positive bacterial, and fungal pathogens of high or critical priority on the world health organization's priority lists for bacteria and fungi. Earlier applications of CSA compounds have focused on preventing medical device infections, and all three strains are commonly found in colonized implants, making efficacy against these pathogens an important indicator of future applicability.
(§2) All compounds were screened against these pathogens to determine their minimum inhibitory concentration (MIC), minimum bactericidal concentration (MBC), and minimum fungicidal concentration (MFC) using a broth microdilution method. […] Of these three, only CSA-4110 was similarly active against PA01and CA, inhibiting growth at 8 μg/mL.

[2] = system: Pseudomonas aeruginosa 01 (PA01); assay: MIC and MBC, broth microdilution, PA01 (Table 1); assay type: cell-based; details: for MBC / MIC: Pseudomonas aeruginosa; for MBC / MBC or MFC: value in parentheses; for MIC: first value of cell
Description: as §1, §2

Candida albicans (CA) = assay: MIC and MFC, broth microdilution, CA (Table 1); assay type: cell-based; details: for MBC / MIC: Candida albicans; for MBC / MBC or MFC: MFC, value in parentheses; for MIC: first value of cell
Description: as §1, §2

Candida albicans 90028 = assay: Example 1 MIC/MFC (FIG. 1, FIG. 2), C. albicans; assay type: cell-based
Description: (§3) The antimicrobial activities of CSA-4108, CSA-4110, CSA-4112, and CSA-4114 were determined relative to methicillin-resistant Staphylococcus aureus (MRSA), Pseudomonas aeruginosa (Pa), and Candida albicans 90028. The minimum inhibitory concentration (MIC) for CSA-4108, CSA-4110, CSA-4112, and CSA-4114 relative to the foregoing microbes is graphically reported in FIG. 1. The minimum bactericidal concentration (MBC) and minimum fungicidal concentration […] for CSA-4108, CSA-4110, CSA-4112, and CSA-4114 relative to the foregoing microbes are graphically reported in FIG. 2.

MRSA ATCC BAA-42 = assay: Membrane depolarization, DiSC2(5) fluorescence; assay type: cell-based, Staphylococcus aureus; details: 8 μg/mL, FIG. 5
Description: Reference is made to FIGS. 4 and 5. […] CSA-131 or CSA-4110 was added at 140 second to achieve 8 μg/mL after addition.
Antimicrobial peptides (AMPs) and CSA compounds are known to permeabilize bacterial membranes. For bacterial survival, the cytoplasmic membrane must be polarized. Depolarization of this membrane prevents ATP synthesis and leads to cell death. The dye 3,3′-diethylthiadicarbocyanine iodide (DiSC2(5)) can be used to measure cell membrane polarization. Fluorescence of this dye is decreased when it inserts into polarized membranes, and membrane depolarization results in substantial increases in fluorescence (see FIG. 5).
MRSA was used to explore the impact of CSA-4110 on membrane depolarization and compared results to those with ceragenin CSA-131. […] Fluorescence was monitored over time after addition of CSA-4110 or CSA-131. which incorporated into cellular membranes.

[3] = system: strains of Staphylococcus aureus, Pseudomonas aeruginosa, and Candida albicans; details: previous work; strains of S. aureus, P. aeruginosa, C. albicans; cited from earlier work
PA01, MRSA and CA = assay: MIC, MBC and MFC screen, all three pathogens (summary statements); assay type: cell-based; details: compared with CSA-4110
Description: as §1, §2

[4] = system: methicillin-resistant Staphylococcus aureus (MRSA); assay: Example 1 MIC/MBC (FIG. 1, FIG. 2), MRSA; assay type: cell-based
Description: as §3

[5] = MBC, value in parentheses, kills at least 99.9%

| SMILES | MBC [1, 5] | MIC [1] | MBC [2] | MIC [2] | MBC (Candida albicans (CA)) | MIC (Candida albicans (CA)) | MBC or MFC (Candida albicans (CA)) | MIC (FIG. 1), ranking in words (Candida albicans 90028) | speed of depolarization of MRSA cells, comparison (MRSA ATCC BAA-42) | fluorescence of DiSC2(5) after addition (membrane depolarization) (MRSA ATCC BAA-42; added at 140 seconds) | MICs [3] | MBC or MFC [1, 5] | MBC or MFC [2] | antimicrobial activity in MIC and MBC/MFC assays, in words (PA01, MRSA and CA) | MIC (FIG. 1), ranking in words [4] | MFC (FIG. 2), ranking in words (Candida albicans 90028) |
| --- | --- | --- | --- | --- | --- | --- | --- | --- | --- | --- | --- | --- | --- | --- | --- | --- |
| CCCCCCCC(=O)OCC(COC(=O)CC[C@@H](C)[C@H]1CC[C@H]2[C@@H]3[C@H](OC(=O)CCN)C[C@@H]4C[C@H](OC(=O)CCN)CC[C@]4(C)[C@H]3C[C@H](OC(=O)CCN)[C@]12C)OC(=O)CCCCCCC (stereo partly shown) [CSA-4208] | 64 µg/mL (≈ 67.5 µM) | 32 µg/mL (≈ 33.7 µM) | > 100 µg/mL | 64 µg/mL (≈ 67.5 µM) | 64 µg/mL (≈ 67.5 µM) | 64 µg/mL (≈ 67.5 µM) | – | – | – | – | – | – | – | – | – | – |
| CCCCCCCC(=O)OCC(O)COC(=O)CC[C@@H](C)[C@H]1CC[C@H]2[C@@H]3[C@H](OC(=O)CCN)C[C@@H]4C[C@H](OC(=O)CCN)CC[C@]4(C)[C@H]3C[C@H](OC(=O)CCN)[C@]12C (stereo partly shown) [CSA-4108] | 32 µg/mL (≈ 38.9 µM) | 16 µg/mL (≈ 19.5 µM) | > 100 µg/mL | 64 µg/mL (≈ 77.8 µM) | 16 µg/mL (≈ 19.5 µM) | 16 µg/mL (≈ 19.5 µM) | 16 (16) μg/mL | same MIC | – | – | – | – | – | – | – | – |
| CCCCCCCCCC(=O)OCC(COC(=O)CC[C@@H](C)[C@H]1CC[C@H]2[C@@H]3[C@H](OC(=O)CCN)C[C@@H]4C[C@H](OC(=O)CCN)CC[C@]4(C)[C@H]3C[C@H](OC(=O)CCN)[C@]12C)OC(=O)CCCCCCCCC (stereo partly shown) [CSA-4210] | > 100 µg/mL | > 100 µg/mL | > 100 µg/mL | > 100 µg/mL | > 100 µg/mL | > 100 µg/mL | – | – | – | – | – | – | – | – | – | – |
| CCCCCCCCCCCCNCCC[C@@H](C)[C@H]1CC[C@H]2[C@@H]3[C@H](OCCCN)C[C@@H]4C[C@H](OCCCN)CC[C@]4(C)[C@H]3C[C@H](OCCCN)[C@]12C.Cl.Cl.Cl.Cl [CSA-131] | – | – | – | – | – | – | – | – | more rapidly than CSA-4110 | rapid increase of fluorescence | 0.5 to 2 µg/mL | – | – | – | – | – |
| CCCCCCCCCCCC(=O)OCC(O)COC(=O)CC[C@@H](C)[C@H]1CC[C@H]2[C@@H]3[C@H](OC(=O)CCN)C[C@@H]4C[C@H](OC(=O)CCN)CC[C@]4(C)[C@H]3C[C@H](OC(=O)CCN)[C@]12C (stereo partly shown) [CSA-4112] | 32 µg/mL (≈ 36.4 µM) | 16 µg/mL (≈ 18.2 µM) | 64 µg/mL (≈ 72.9 µM) | 64 µg/mL (≈ 72.9 µM) | 16 µg/mL (≈ 18.2 µM) | 16 µg/mL (≈ 18.2 µM) | 16 (16) μg/mL | same MIC | – | – | – | – | – | – | – | – |
| CCCCCC(=O)OCC(COC(=O)CC[C@@H](C)[C@H]1CC[C@H]2[C@@H]3[C@H](OC(=O)CCN)C[C@@H]4C[C@H](OC(=O)CCN)CC[C@]4(C)[C@H]3C[C@H](OC(=O)CCN)[C@]12C)OC(=O)CCCCC (stereo partly shown) [CSA-4206] | 8 µg/mL (≈ 8.97 µM) | ≤ 8 µg/mL | 32 µg/mL (≈ 35.9 µM) | 32 µg/mL (≈ 35.9 µM) | 8 µg/mL (≈ 8.97 µM) | 8 µg/mL (≈ 8.97 µM) | 8 (8) μg/mL | – | – | – | – | 8 (8) μg/mL | 32 (32) μg/mL | – | – | – |
| CCCCCCCCCC(=O)OC[C@@H](O)COC(=O)CC[C@@H](C)[C@H]1CC[C@H]2[C@@H]3[C@H](OC(=O)CCN)C[C@@H]4C[C@H](OC(=O)CCN)CC[C@]4(C)[C@H]3C[C@H](OC(=O)CCN)[C@]12C [CSA-4110R] | 4 µg/mL (≈ 4.71 µM) | 4 µg/mL (≈ 4.71 µM) | 8 µg/mL (≈ 9.41 µM) | 4 µg/mL (≈ 4.71 µM) | 8 µg/mL (≈ 9.41 µM) | 8 µg/mL (≈ 9.41 µM) | – | – | – | – | – | – | – | performed comparably to CSA-4110 | – | – |
| CCCCCCCCCC(=O)OC[C@H](O)COC(=O)CC[C@@H](C)[C@H]1CC[C@H]2[C@@H]3[C@H](OC(=O)CCN)C[C@@H]4C[C@H](OC(=O)CCN)CC[C@]4(C)[C@H]3C[C@H](OC(=O)CCN)[C@]12C [CSA-4110S] | 4 µg/mL (≈ 4.71 µM) | 4 µg/mL (≈ 4.71 µM) | 16 µg/mL (≈ 18.8 µM) | 8 µg/mL (≈ 9.41 µM) | 8 µg/mL (≈ 9.41 µM) | 8 µg/mL (≈ 9.41 µM) | – | – | – | – | – | – | – | performed comparably to CSA-4110 | – | – |
| CCCCCCCCCCCCCC(=O)OCC(O)COC(=O)CC[C@@H](C)[C@H]1CC[C@H]2[C@@H]3[C@H](OC(=O)CCN)C[C@@H]4C[C@H](OC(=O)CCN)CC[C@]4(C)[C@H]3C[C@H](OC(=O)CCN)[C@]12C (stereo partly shown) [CSA-4114] | > 100 µg/mL | 64 µg/mL (≈ 70.6 µM) | > 100 µg/mL | > 100 µg/mL | 64 µg/mL (≈ 70.6 µM) | 64 µg/mL (≈ 70.6 µM) | – | highest MIC | – | – | – | – | – | – | highest MIC | highest MFC |
| CCCC(=O)OCC(COC(=O)CC[C@@H](C)[C@H]1CC[C@H]2[C@@H]3[C@H](OC(=O)CCN)C[C@@H]4C[C@H](OC(=O)CCN)CC[C@]4(C)[C@H]3C[C@H](OC(=O)CCN)[C@]12C)OC(=O)CCC (stereo partly shown) [CSA-4204] | 8 µg/mL (≈ 9.57 µM) | ≤ 8 µg/mL | 100 µg/mL (≈ 120 µM) | 64 µg/mL (≈ 76.5 µM) | 32 µg/mL (≈ 38.3 µM) | 16 µg/mL (≈ 19.1 µM) | – | – | – | – | – | – | > 100 µg/mL | – | – | – |
